Reference: PMC4183650 (Journal of the American Chemical Society, 2014)

What was measured:
[1] = system: panel of Gram-positive bacteria (VSSA, MRSA, VanA and VanB VRE); assay: In vitro antimicrobial assay, panel summary in text; assay type: cell-based, S. aureus, E. faecalis, E. faecium
VanA VRE = settings: clinically resistant phenotypes (VanA and VanB); cited from earlier work
[2] = both D-Ala-D-Ala and D-Ala-D-Lac ligands; cited from earlier work

## [Ψ[C(=S)NH]Tpg^4]vancomycin [compound 2]
[1]; whole panel: VSSA, MRSA, VanA and VanB VRE
  MIC against all vancomycin sensitive and resistant strains: > 32 µg/mL

## Vancomycin [compound 1]
VanA VRE
  loss in antimicrobial activity in resistant phenotypes: 1000 fold

## [Ψ[C(=NH)NH]Tpg^4]vancomycin aglycon [compound 9]
[2]
  binding affinity for both target ligands relative to vancomycin aglycon for D-Ala-D-Ala: ≤ 2 fold

## [Ψ[C(=NH)NH]Tpg^4]vancomycin [compound 3]
[1]; VanA resistant bacteria
  MIC against VanA resistant bacteria: 0.5 µg/mL
